Measurements published in patent US20260274892A1, “MACROCYCLIC BROAD SPECTRUM ANTIBIOTICS” (RQx Pharmaceuticals, Inc., priority 2017, published 2026).

Assays:
[1] = system: Escherichia coli ATCC 25922; assay: Minimum inhibitory concentration (MIC), CLSI broth micro-dilution, E. coli; type: cell-based; details: Escherichia coli, ATCC25922, 22 h, Table 6, cation adjusted Mueller Hinton Broth + 0.002% Tween-80, 35° C.
Procedure, shortened: (§1)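 Antibacterial potency is measured as MIC by the CLSI broth dilution method. Bacteria at OD600 0.0005 in Tween-80-supplemented cation-adjusted Mueller Hinton broth face ten twofold compound dilutions for 22 h at 35° C.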

[2] = system: Methicillin Resistant Staphylococcus aureus strain USA 200; assay: Minimum inhibitory concentration (MIC), CLSI broth micro-dilution, S. aureus; type: cell-based; details: Staphylococcus aureus, MRSA / USA200; Table 6; MRSA USA 200; cation adjusted Mueller Hinton Broth + 0.002% Tween-80; 35° C., 22 hours
Procedure, shortened: as §1

| SMILES | MIC [1] | MIC [2] |
| --- | --- | --- |
| Cc1nc(-c2ccc(C3(C(F)(F)F)CC3)cc2)ncc1C(=O)N[C@@H](CCN)C(=O)N(C)[C@@H]1C(=O)N[C@@H](C)C(=O)N[C@H](C(=O)NCC#N)Cc2ccc(OCCN)c(c2)-c2cc1ccc2OCCN (racemic) [Compound 219, rac-(8S,11S,14S)-3,18-bis(2-aminoethoxy)-N-(cyanomethyl)-11-methyl-14-[methyl-[rac-(2S)-4-amino-2-[[4-methyl-2-[4-[1-(trifluoromethyl)cyclopropyl]phenyl]pyrimidine-5-carbonyl]amino]butanoyl]amino]-10,13-dioxo-9,12-diazatricyclo[13.3.1.12,6]icosa-1(18),2(20),3,5,15(19),16-hexaene-8-carboxamide] | 0.13 µM | 0.012 µM |
| Cc1nc(C#CC(C)(C)C)ccc1C(=O)N[C@@H](CCN)C(=O)N(C)[C@@H]1C(=O)N[C@@H](C)C(=O)N[C@H](C(=O)NCC#N)Cc2ccc(OCCN)c(c2)-c2cc1ccc2OCCN (racemic) [Compound 213, rac-(8S,11S,14S)-3,18-bis(2-aminoethoxy)-N-(cyanomethyl)-11-methyl-14-[methyl-[rac-(2S)-4-amino-2-[[6-(3,3-dimethylbut-1-ynyl)-2-methyl-pyridine-3-carbonyl]amino]butanoyl]amino]-10,13-dioxo-9,12-diazatricyclo[13.3.1.12,6]icosa-1(18),2(20),3,5,15(19),16-hexaene-8-carboxamide] | 1.1 µM | 0.28 µM |
| Cc1nc(-c2ccc(C(C)(C)C)cc2)c(Cl)cc1C(=O)N[C@@H](CCN)C(=O)N(C)[C@@H]1C(=O)N[C@@H](C)C(=O)N[C@H](C(=O)NCC#N)Cc2ccc(OCCN)c(c2)-c2cc1ccc2OCCN (racemic) [Compound 407, rac-(8S,11S,14S)-3,18-bis(2-aminoethoxy)-N-(cyanomethyl)-11-methyl-14-[methyl-[rac-(2S)-4-amino-2-[[6-(4-tert-butylphenyl)-5-chloro-2-methyl-pyridine-3-carbonyl]amino]butanoyl]amino]-10,13-dioxo-9,12-diazatricyclo[13.3.1.12,6]icosa-1(18),2(20),3,5,15(19),16-hexaene-8-carboxamide] | 0.13 µM | 0.016 µM |
| Cc1nc(C#CC(C)(C)C)nc(C)c1C(=O)N[C@@H](CCN)C(=O)N(C)[C@@H]1C(=O)N[C@@H](C)C(=O)N[C@H](C(=O)NCC#N)Cc2ccc(OCCN)c(c2)-c2cc1ccc2OCCN (racemic) [Compound 306, rac-(8S,11S,14S)-3,18-bis(2-aminoethoxy)-N-(cyanomethyl)-11-methyl-14-[methyl-[rac-(2S)-4-amino-2-[[2-(3,3-dimethylbut-1-ynyl)-4,6-dimethyl-pyrimidine-5-carbonyl]amino]butanoyl]amino]-10,13-dioxo-9,12-diazatricyclo[13.3.1.12,6]icosa-1(18),2(20),3,5,15(19),16-hexaene-8-carboxamide] | 14 µM | 0.84 µM |
| CCCCOc1ccc(-c2ncc(C(=O)N[C@@H](CCN)C(=O)N(C)[C@@H]3C(=O)N[C@@H](C)C(=O)N[C@H](C(=O)NCC#N)Cc4ccc(OCCN)c(c4)-c4cc3ccc4OCCN)c(C)n2)cc1Cl (racemic) [Compound 247, rac-(8S,11S,14S)-3,18-bis(2-aminoethoxy)-N-(cyanomethyl)-11-methyl-14-[methyl-[rac-(2S)-4-amino-2-[[2-(4-butoxy-3-chloro-phenyl)-4-methyl-pyrimidine-5-carbonyl]amino]butanoyl]amino]-10,13-dioxo-9,12-diazatricyclo[13.3.1.12,6]icosa-1(18),2(20),3,5,15(19),16-hexaene-8-carboxamide] | 0.19 µM | 0.016 µM |
| Cc1cc(-c2ccc3c(c2)CCC3(C)C)nc(C)c1C(=O)N[C@@H](CCN)C(=O)N(C)[C@@H]1C(=O)N[C@@H](C)C(=O)N[C@H](C(=O)NCC#N)Cc2ccc(OCCN)c(c2)-c2cc1ccc2OCCN (racemic) [Compound 361, rac-(8S,11S,14S)-3,18-bis(2-aminoethoxy)-N-(cyanomethyl)-11-methyl-14-[methyl-[rac-(2S)-4-amino-2-[[6-(1,1-dimethylindan-5-yl)-2,4-dimethyl-pyridine-3-carbonyl]amino]butanoyl]amino]-10,13-dioxo-9,12-diazatricyclo[13.3.1.12,6]icosa-1(18),2(20),3,5,15(19),16-hexaene-8-carboxamide] | 0.13 µM | 0.016 µM |
| CCCc1ccc(-c2ncc(C(=O)N[C@@H](CCN)C(=O)N(C)[C@@H]3C(=O)N[C@@H](C)C(=O)N[C@H](C(=O)NCC#N)Cc4ccc(OCCN)c(c4)-c4cc3ccc4OCCN)c(C)n2)c(C)c1 (racemic) [Compound 222, rac-(8S,11S,14S)-3,18-bis(2-aminoethoxy)-N-(cyanomethyl)-11-methyl-14-[methyl-[rac-(2S)-4-amino-2-[[4-methyl-2-(2-methyl-4-propyl-phenyl)pyrimidine-5-carbonyl]amino]butanoyl]amino]-10,13-dioxo-9,12-diazatricyclo[13.3.1.12,6]icosa-1(18),2(20),3,5,15(19),16-hexaene-8-carboxamide] | 0.53 µM | 0.033 µM |
| CCCCc1ccc(-c2ncc(C(=O)N[C@@H](CCN)C(=O)N(C)[C@@H]3C(=O)N[C@@H](C)C(=O)N[C@H](C(=O)NCC#N)Cc4ccc(OCCN)c(c4)-c4cc3ccc4OCCN)c(C)n2)c(C)c1 (racemic) [Compound 223, rac-(8S,11S,14S)-3,18-bis(2-aminoethoxy)-N-(cyanomethyl)-11-methyl-14-[methyl-[rac-(2S)-4-amino-2-[[2-(4-butyl-2-methyl-phenyl)-4-methyl-pyrimidine-5-carbonyl]amino]butanoyl]amino]-10,13-dioxo-9,12-diazatricyclo[13.3.1.12,6]icosa-1(18),2(20),3,5,15(19),16-hexaene-8-carboxamide] | 0.26 µM | 0.016 µM |
| Cc1nc(-c2ccc(OC3CCCC3)cc2)nc(C)c1C(=O)N[C@@H](CCN)C(=O)N(C)[C@@H]1C(=O)N[C@@H](C)C(=O)N[C@H](C(=O)NCC#N)Cc2ccc(OCCN)c(c2)-c2cc1ccc2OCCN (racemic) [Compound 336, rac-(8S,11S,14S)-3,18-bis(2-aminoethoxy)-N-(cyanomethyl)-11-methyl-14-[methyl-[rac-(2S)-4-amino-2-[[2-[4-(cyclopentoxy)phenyl]-4,6-dimethyl-pyrimidine-5-carbonyl]amino]butanoyl]amino]-10,13-dioxo-9,12-diazatricyclo[13.3.1.12,6]icosa-1(18),2(20),3,5,15(19),16-hexaene-8-carboxamide] | 0.15 µM | 0.016 µM |

Second part, the compound after the results:

| MIC [1] | MIC [2] | SMILES |
| --- | --- | --- |
| 0.23 µM | 0.029 µM | CCC(C)(C)c1ccc(-c2ncc(C(=O)N[C@@H](CCN)C(=O)N(C)[C@@H]3C(=O)N[C@@H](C)C(=O)N[C@H](C(=O)NCC#N)Cc4ccc(O)c(c4)-c4cc3ccc4OCCN)c(C)n2)cc1 (racemic) [Compound 535, rac-(8S,11S,14S)-18-(2-aminoethoxy)-N-(cyanomethyl)-3-hydroxy-11-methyl-14-[methyl-[rac-(2S)-4-amino-2-[[2-[4-(1,1-dimethylpropyl)phenyl]-4-methyl-pyrimidine-5-carbonyl]amino]butanoyl]amino]-10,13-dioxo-9,12-diazatricyclo[13.3.1.12,6]icosa-1(18),2(20),3,5,15(19),16-hexaene-8-carboxamide] |
| 0.73 µM | 0.046 µM | COc1ccc2cc1-c1cc(ccc1OCCN)C[C@@H](C(=O)NCC#N)NC(=O)[C@H](C)NC(=O)[C@H]2N(C)C(=O)[C@H](CCN)NC(=O)c1cnc(-c2ccc(C(C)(C)C)cc2)nc1C (racemic) [Compound 558, rac-(8S,11S,14S)-3-(2-aminoethoxy)-N-(cyanomethyl)-18-methoxy-11-methyl-14-[methyl-[rac-(2S)-4-amino-2-[[2-(4-tert-butylphenyl)-4-methyl-pyrimidine-5-carbonyl]amino]butanoyl]amino]-10,13-dioxo-9,12-diazatricyclo[13.3.1.12,6]icosa-1(18),2(20),3,5,15(19),16-hexaene-8-carboxamide] |
| 1.1 µM | 0.025 µM | Cc1nc(-c2ccc(C(C)(C)C)cc2)ncc1C(=O)N[C@@H](CCN)C(=O)N(C)[C@@H]1C(=O)NCC(=O)N[C@H](C(=O)NCC#N)Cc2ccc(OCCN)c(c2)-c2cc1ccc2OCCN (racemic) [Compound 476, rac-(8S,14S)-3,18-bis(2-aminoethoxy)-N-(cyanomethyl)-14-[methyl-[rac-(2S)-4-amino-2-[[2-(4-tert-butylphenyl)-4-methyl-pyrimidine-5-carbonyl]amino]butanoyl]amino]-10,13-dioxo-9,12-diazatricyclo[13.3.1.12,6]icosa-1(18),2(20),3,5,15(19),16-hexaene-8-carboxamide] |
| 0.097 µM | 0.0061 µM | CCCCCc1ccc(-c2nc(C)c(C(=O)N[C@@H](CCN)C(=O)N(C)[C@@H]3C(=O)N[C@@H](C)C(=O)N[C@H](C(=O)NCC#N)Cc4ccc(OCCN)c(c4)-c4cc3ccc4OCCN)c(C)n2)cc1 (racemic) [Compound 513, rac-(8S,11S,14S)-3,18-bis(2-aminoethoxy)-N-(cyanomethyl)-11-methyl-14-[methyl-[rac-(2S)-4-amino-2-[[4,6-dimethyl-2-(4-pentylphenyl)pyrimidine-5-carbonyl]amino]butanoyl]amino]-10,13-dioxo-9,12-diazatricyclo[13.3.1.12,6]icosa-1(18),2(20),3,5,15(19),16-hexaene-8-carboxamide] |
